Values quoted from earlier work as cited in patent US12297161B2, “Process for making sarecycline hydrochloride” (PARATEK PHARMACEUTICALS, INC., priority 2018, dated 2025).

Tests used:
[1] = in vivo
[2] = test system: aerobic Gram-negative gastrointestinal (GI) organisms; settings: compared with minocycline and doxycycline

CON(C)Cc1ccc(O)c2c1C[C@H]1C[C@H]3[C@H](N(C)C)C(O)=C(C(N)=O)C(=O)[C@@]3(O)C(O)=C1C2=O [Sarecycline, (4S, 4aS, 5aR, 12aS)-4-dimethylamino-3, 10, 12, 12a-tetrahydroxy-7-[(methoxy (methyl)amino)-methyl]-1, 11-dioxo-1,4,4a, 5,5a, 6, 11, 12a-octahydro-naphthacene-2-carboxylic acid amide]
inflammatory lesions of moderate to severe acne vulgaris [1]: reduce inflammatory lesions
antibacterial activity against aerobic Gram-negative gastrointestinal (GI) organisms [2]: more limited activity against aerobic Gram-negative gastrointestinal (GI) organisms than minocycline and doxycycline
